Reference: paper PMC6430500, “3-Fluoro-4-hydroxyprolines: Synthesis, Conformational Analysis, and Stereoselective Recognition by the VHL E3 Ubiquitin Ligase for Targeted Protein Degradation” (Journal of the American Chemical Society, 2018)

How the values were obtained:
Brd4BD2 = biological target: T1, Brd4BD2 (Homo sapiens, UniProt O60885); assay: ITC of PROTACs, binary titration with Brd4BD2; format: binding; conditions: PROTAC in cell, Brd4BD2 in syringe
T1 construct: Brd4BD2 (333–460); made in house; host or cells: E. coli BL21(DE3)
Source text: (§1) structure (C2 R, C3 S, C4 R) assumed on the basis of unchanging stereogenic centres in the synthesis.
(§2) Final R(F) = 0.033, wR(F 2) = 0.085 for 275 parameters and 3901 reflections with I > 2σ(I) (corresponding R-values based on all 4067 reflections = 0.035 and 0.086, respectively), CCDC […]
(§3) Protein expression and purification.
(§4) Wild-type versions of human proteins VHL (UniProt accession number: P40337), ElonginC […]
(§5) expression. For expression of VBC, N-terminally His6-tagged VHL (54–213), ElonginC (17–112) and ElonginB (1–104) were co- expressed in Escherichia coli BL21(DE3) at 24 °C for 16 h using 0.3 mM isopropyl β-D -1-thiogalactopyranoside (IPTG). E. coli cells were lysed using a pressure cell homogenizer (Stansted Fluid Power) and lysate clarified by centrifugation. His6-tagged VCB was purified on a HisTrap FF affinity column (GE Healthcare) by elution with an imidazole gradient. The His6tag was removed using TEV protease and the untagged complex dialyzed into low -concentration imidazole buffer. VCB was then flowed through the HisTrap FF column a second time, allowing impurities to bind, as the complex eluted without binding. VCB was then additionally purified by anion exchange and size-exclusion chromatography using ResourceQ and Superdex-75 columns (GE Healthcare), respectively. The final purified complex was stored in 20 mM Bis–Tris, pH 7, 150 mM sodium chloride and 1 mM dithiothreitol (DTT). Brd2BD1 (71–194), and Brd4BD2 (333–460) were expressed with an N-terminal His6 tag in E. coli BL21(DE3) at 18 °C for 20 h using 0.2 mM IPTG.
(§6) His6-tagged BDs were purified on nickel Sepharose 6 fast flow beads (GE Healthcare) by elution with increasing concentrations of imidazole. For crystallography the His6-tagged BD was cleaved with TEV protease and dialyzed into low-concentration imidazole buffer. The BD was then flowed over the nickel beads a second time to remove impurities and protease. BDs were then additionally purified by size-exclusion chromatography using a Superdex-75 column. The BDs were purified by size-exclusion chromatography using a Superdex-75 column. The final purified proteins were stored in 20 mM 4-(2-hydroxyethyl)-1-piperazineethanesulfonic acid (HEPES), pH 7.5, 150 mM sodium chloride and 1 mM DTT. All chromatography purification steps were performed using Äkta FPLC purification systems (GE Healthcare) or glass econo-columns (Bio-Rad) at room temperature.
(§7) Isothermal titration calorimetry (ITC) of peptides and ligands
(§8) Titrations were performed on an ITC200 micro-calorimeter (GE Healthcare). The peptides were dissolved in buffer (20 mM Bis–Tris propane, 100 mM NaCl, 1 mM tris(2-carboxyethyl)phosphine […]
(§9) (TCEP), pH 7.4) at 100 µM. The compounds were titrated against 10 µM VBC complex, equilibrated in the same buffer. The titrations consisted of 20 injections of 2 µL of peptide solution at a rate of 0.5 µL/s at 120 s time intervals. An initial injection of ligand (0.4 µL) was made and discarded during data analysis. All experiments were performed at 25°C while stirring at 650 rpm.
(§10) Ligands 14a- b were diluted from DMSO stock solution to 300 µM in buffer (20 mM Bis-Tris propane, 150 mM NaCl, 1 mM TCEP, pH 7.4). The compounds were titrated against 30 µM VBC complex, equilibrated in the same buffer. The final concentration of DMSO in each experiment was […]
(§11) The data were fitted to a single-binding-site model using the MicroCal PEAQ-ITC analysis software provided by the manufacturer to obtain the stoichiometry n, the dissociation constant K d, and the enthalpy of binding ΔH . The reported values are the mean ± s.e.m. from independent measurements.
(§12) Isothermal titration calorimetry (ITC)of PROTACs
(§13) The titrations were all performed as reverse mode (protein in syringe, ligand in cell) and consisted of 19 injections of 2 µl protein solution (20 mM Bis–Tris propane, 100 mM NaCl, 1 mM tris(2-carboxyethyl)phosphine (TCEP), pH 7.4) at a rate of 0.5 µl/s at 120 s time intervals. An initial injection (0.4 µl) was made and discarded during data analysis. […]

A549 cells = assay: A549 colony-formation assay; format: cell-based; conditions: 7 days, crystal violet
Protocol: A549 Colony-Formation Assay
A549 cells were seeded in clear, Nunc™ Edge 2.0 96 -w ell plates (Thermo Scientific) at 1000 cells per well and incubated at 37°C in DMEM. After 24 h cells were treated with test compounds from 10 µM to 100 nM , with a final DM SO of 0.1%. The cells were left to grow until DM SO -treated wells reached ~100% confluence (~8 days), at which point they were washed with PBS, fixed with 100% MeOH (30 min 4°C), stained with 0.1% crystal violet (30 min at r.t.) and left to dry overnight. Once dried plates were imaged on an Epson Perfection V800 scanner, at a resolution of 1200 DPI and in 48 -bit colour.
For dose-response curves, crystal-violet dye was extracted by the addition of 200 µl 1% SDS to each well, and incubation for 3 h at r.t. The absorbance at 595nm of each well was measured on a Pherastar FS (BMG), normalised for each compound and plotted against compound concentration.
(1 picture or pasted object on this page, not shown here)

Brd2BD1 = biological target: T2, Brd2BD1 (Homo sapiens, UniProt P25440); assay: ITC of PROTACs, binary titration with Brd2BD1; format: binding; conditions: PROTAC in cell, Brd2BD1 in syringe
T2 construct: Brd2BD1 (71–194),; made in house; host or cells: E. coli BL21(DE3)
T2 sequence (P25440 71-194): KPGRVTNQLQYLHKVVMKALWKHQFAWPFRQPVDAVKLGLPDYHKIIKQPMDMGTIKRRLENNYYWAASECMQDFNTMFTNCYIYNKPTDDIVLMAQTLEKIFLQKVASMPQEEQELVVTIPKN
Source text: as §1, §2, §3, §4, §5, §6, §7, §8, §9, §10, §11, §12, §13

## Cc1ncsc1-c1ccc(CNC(=O)[C@@H]2[C@@H](F)[C@@H](O)CN2C(=O)[C@@H](NC(=O)COCCOCCOCCNC(=O)C[C@@H]2N=C(c3ccc(Cl)cc3)c3c(sc(C)c3C)-n3c(C)nnc32)C(C)(C)C)cc1 [15a]
Brd4BD2
  Kd: 0.028 ± 0.002 µM
  ΔG: -43.1 kJ/mol
  ΔH: -43.5 ± 3.3 kJ/mol
  –TΔS: 0.42 ± 2.5 kJ/mol
A549 cells
  effect on cell growth, colony formation (in words): profound concentration-dependent cytotoxicity
Brd2BD1
  Kd: 0.097 ± 0.0006 µM
  ΔG: -40 ± 0.042 kJ/mol
  ΔH: -57.3 ± 1.3 kJ/mol
  –TΔS: 17.6 ± 1.3 kJ/mol

## Cc1ncsc1-c1ccc(CNC(=O)[C@@H]2[C@H](F)[C@@H](O)CN2C(=O)[C@@H](NC(=O)COCCOCCOCCNC(=O)C[C@@H]2N=C(c3ccc(Cl)cc3)c3c(sc(C)c3C)-n3c(C)nnc32)C(C)(C)C)cc1 [15b]
Brd4BD2
  Kd: 0.032 ± 0.003 µM
  ΔG: -43.1 ± 0.42 kJ/mol
  ΔH: -38.9 ± 1.7 kJ/mol
  –TΔS: -3.8 ± 1.7 kJ/mol
A549 cells
  effect on cell growth, colony formation (in words): affected cell growth only modestly
Brd2BD1
  Kd: 0.111 ± 0.006 µM
  ΔG: -39.7 ± 0.13 kJ/mol
  ΔH: -59 ± 2.5 kJ/mol
  –TΔS: 20.5 ± 2.5 kJ/mol
